Measured values reported in PMC5439695 (PLoS ONE, 2017).
Like-named read-outs stand apart in the source and are kept apart here.

How the values were obtained:
[1] = system: estrogen receptor (ER); settings: cited from earlier work; for AUC score in Judson 2015: ER antagonist, ToxCast chemicals only, ref Judson 2015; for ER antagonist AUC score: pathway-level model using all Tox21/ToxCast ER assays of 1812 ToxCast chemicals
[2] = system: HEK293 and HepG2 cell lines
[3] = system: HEK293 cells; settings: HEK293 flor
[4] = system: HEK293 cells; assay: cells; settings: Homo sapiens
[5] = system: HEK293 cells; settings: HEK293 glo
[6] = system: HepG2 cells; assay: cells; settings: Homo sapiens
[7] = system: HepG2 cells; assay: CellTox Green Cytotoxicity Assay (flor) in HepG2, HepG2[flor]; assay type: cell-based, human; settings: HepG2 flor; for EC50: Homo sapiens, given as negative log-scale values;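 as to hepg2 flor emax 0: percent activity versus DMSO-only wells with baseline rescaled to 0%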;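 as to hepg2 flor emax 40: percent activity versus DMSO-only wells with baseline rescaled to 0%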
[8] = system: HepG2 cells; settings: HepG2 glo
[9] = system: HEK293 cells; assay: cells; settings: Homo sapiens; remark: listed apart in the source
[10] = POD potency, max over real-time cytotoxicity assays
[11] = POD potency, median over real-time cytotoxicity assays

Question: Which “AUC score in Judson 2015” value [1] does the source give for `CN[C@H]1CC[C@@H](c2ccc(Cl)c(Cl)c2)c2ccc(S(N)(=O)=O)cc21` [UK-373911] here?
Answer: 6.68e-8

Question: What about the “Cyto(realtime)_max” value [2, 10] of the same compound?
Answer: 5.12 log10(M)*-1

Question: What about the “Cyto(realtime)_median” value [2, 11] of the same compound?
Answer: 4.70 log10(M)*-1

Question: For Dodecylphenol, which “AUC score in Judson 2015” value [1] is on record?
Answer: 0

Question: And the “Cyto(realtime)_max” value [2, 10]?
Answer: 5.05 log10(M)*-1

Question: What about the “Cyto(realtime)_median” value [2, 11] of the same compound?
Answer: 4.56 log10(M)*-1

Question: With `CC(C)c1cccc(C(C)C)c1N1C(=O)c2ccc(O)cc2C1=O` [5HPP-33] as the compound, how does the “AUC score in Judson 2015” value [1] read?
Answer: 0

Question: What about the “Cyto(realtime)_max” value [2, 10] of the same compound?
Answer: 4.71 log10(M)*-1

Question: And the “Cyto(realtime)_median” value [2, 11]?
Answer: 4.30 log10(M)*-1

Question: With `CCCCNC(=O)OCC#CI` [3-Iodo-2-propynyl-N-butylcarbamate] as the compound, how does the “AUC score in Judson 2015” value [1] read?
Answer: 0.0283

Question: And the “Cyto(realtime)_max” value [2, 10]?
Answer: 5.74 log10(M)*-1

Question: And the “Cyto(realtime)_median” value [2, 11]?
Answer: 4.62 log10(M)*-1

Question: For `CC(C)=CCC/C(C)=C/CO` [Geraniol], which hek293_flor_auc [3] is on record?
Answer: 0

Question: And the hek293_flor_time [3]?
Answer: 48

Question: What about the hek293_flor_bin ([3]; kinetics bin) of the same compound?
Answer: inactive

Question: And the hek293_flor_emax_0 ([3]; time point 0)?
Answer: 0

Question: And the hek293_flor_pod_0 ([3]; time point 0)?
Answer: -4.417

Question: What about the hek293_flor_wauc_0 ([3]; time point 0) of the same compound?
Answer: 0

Question: And the hek293_flor_emax_8 ([3]; time point 8)?
Answer: 0

Question: What about the hek293_flor_pod_8 ([3]; time point 8) of the same compound?
Answer: -4.417

Question: And the hek293_flor_wauc_8 ([3]; time point 8)?
Answer: 0

Question: And the hek293_flor_emax_16 ([3]; time point 16)?
Answer: 0

Question: What about the hek293_flor_pod_16 ([3]; time point 16) of the same compound?
Answer: -4.417

Question: And the hek293_flor_wauc_16 ([3]; time point 16)?
Answer: 0

Question: And the hek293_flor_emax_24 ([3]; time point 24)?
Answer: 0

Question: And the hek293_flor_pod_24 ([3]; time point 24)?
Answer: -4.417

Question: And the hek293_flor_wauc_24 ([3]; time point 24)?
Answer: 0

Question: What about the hek293_flor_emax_32 ([3]; time point 32) of the same compound?
Answer: 0

Question: And the hek293_flor_pod_32 ([3]; time point 32)?
Answer: -4.417

Question: And the hek293_flor_wauc_32 ([3]; time point 32)?
Answer: 0

Question: And the hek293_flor_emax_40 ([3]; time point 40)?
Answer: 0

Question: What about the hek293_flor_pod_40 ([3]; time point 40) of the same compound?
Answer: -4.417

Question: What about the hek293_flor_wauc_40 ([3]; time point 40) of the same compound?
Answer: 0

Question: What about the EC50 ([4]; HEK293, read-out: hek293_glo_ec50_0) of the same compound?
Answer: > 38.3 µM

Question: And the EC50 ([4]; HEK293, read-out: hek293_glo_ec50_8)?
Answer: > 38.3 µM

Question: What about the EC50 ([4]; HEK293, read-out: hek293_glo_ec50_16) of the same compound?
Answer: > 38.3 µM

Question: And the EC50 ([4]; HEK293, read-out: hek293_glo_ec50_24)?
Answer: > 38.3 µM

Question: What about the EC50 ([4]; HEK293, read-out: hek293_glo_ec50_32) of the same compound?
Answer: > 38.3 µM

Question: What about the EC50 ([4]; HEK293, read-out: hek293_glo_ec50_40) of the same compound?
Answer: > 38.3 µM

Question: And the hek293_glo_auc [5]?
Answer: 0

Question: What about the hek293_glo_time [5] of the same compound?
Answer: 48

Question: And the hek293_glo_bin ([5]; kinetics bin)?
Answer: inactive

Question: And the hek293_glo_emax_0 ([5]; time point 0)?
Answer: 0

Question: And the hek293_glo_pod_0 ([5]; time point 0)?
Answer: -4.417

Question: What about the hek293_glo_wauc_0 ([5]; time point 0) of the same compound?
Answer: 0

Question: What about the hek293_glo_emax_8 ([5]; time point 8) of the same compound?
Answer: 0

Question: What about the hek293_glo_pod_8 ([5]; time point 8) of the same compound?
Answer: -4.417

Question: What about the hek293_glo_wauc_8 ([5]; time point 8) of the same compound?
Answer: 0

Question: And the hek293_glo_emax_16 ([5]; time point 16)?
Answer: 0

Question: And the hek293_glo_pod_16 ([5]; time point 16)?
Answer: -4.417

Question: And the hek293_glo_wauc_16 ([5]; time point 16)?
Answer: 0

Question: And the hek293_glo_emax_24 ([5]; time point 24)?
Answer: 0

Question: What about the hek293_glo_pod_24 ([5]; time point 24) of the same compound?
Answer: -4.417

Question: And the hek293_glo_wauc_24 ([5]; time point 24)?
Answer: 0

Question: And the hek293_glo_emax_32 ([5]; time point 32)?
Answer: 0

Question: What about the hek293_glo_pod_32 ([5]; time point 32) of the same compound?
Answer: -4.417

Question: What about the hek293_glo_wauc_32 ([5]; time point 32) of the same compound?
Answer: 0

Question: What about the hek293_glo_emax_40 ([5]; time point 40) of the same compound?
Answer: 0

Question: And the hek293_glo_pod_40 ([5]; time point 40)?
Answer: -4.417

Question: What about the hek293_glo_wauc_40 ([5]; time point 40) of the same compound?
Answer: 0

Question: And the EC50 ([6]; HepG2, read-out: hepg2_glo_ec50_0)?
Answer: > 38.3 µM

Question: What about the EC50 ([6]; HepG2, read-out: hepg2_glo_ec50_8) of the same compound?
Answer: > 38.3 µM

Question: And the EC50 ([6]; HepG2, read-out: hepg2_glo_ec50_16)?
Answer: > 38.3 µM

Question: And the EC50 ([6]; HepG2, read-out: hepg2_glo_ec50_24)?
Answer: > 38.3 µM

Question: And the EC50 ([6]; HepG2, read-out: hepg2_glo_ec50_32)?
Answer: > 38.3 µM

Question: And the EC50 ([6]; HepG2, read-out: hepg2_glo_ec50_40)?
Answer: > 38.3 µM

Question: What about the information ([2]; any activity in any time point/assay) of the same compound?
Answer: 0

Question: What about the hepg2_flor_auc [7] of the same compound?
Answer: 0

Question: What about the hepg2_flor_time [7] of the same compound?
Answer: 48

Question: What about the hepg2_flor_bin ([7]; kinetics bin) of the same compound?
Answer: inactive

Question: What about the hepg2_flor_emax_0 ([7]; time point 0) of the same compound?
Answer: 0

Question: What about the hepg2_flor_pod_0 ([7]; time point 0) of the same compound?
Answer: -4.417

Question: What about the hepg2_flor_wauc_0 ([7]; time point 0) of the same compound?
Answer: 0

Question: And the hepg2_flor_emax_8 ([7]; time point 8)?
Answer: 0

Question: And the hepg2_flor_pod_8 ([7]; time point 8)?
Answer: -4.417

Question: And the hepg2_flor_wauc_8 ([7]; time point 8)?
Answer: 0

Question: And the hepg2_flor_emax_16 ([7]; time point 16)?
Answer: 0

Question: And the hepg2_flor_pod_16 ([7]; time point 16)?
Answer: -4.417

Question: And the hepg2_flor_wauc_16 ([7]; time point 16)?
Answer: 0

Question: What about the hepg2_flor_emax_24 ([7]; time point 24) of the same compound?
Answer: 0

Question: And the hepg2_flor_pod_24 ([7]; time point 24)?
Answer: -4.417

Question: What about the hepg2_flor_wauc_24 ([7]; time point 24) of the same compound?
Answer: 0

Question: What about the hepg2_flor_emax_32 ([7]; time point 32) of the same compound?
Answer: 0

Question: And the hepg2_flor_pod_32 ([7]; time point 32)?
Answer: -4.417

Question: What about the hepg2_flor_wauc_32 ([7]; time point 32) of the same compound?
Answer: 0

Question: And the hepg2_flor_emax_40 ([7]; time point 40)?
Answer: 0

Question: What about the hepg2_flor_pod_40 ([7]; time point 40) of the same compound?
Answer: -4.417

Question: And the hepg2_flor_wauc_40 ([7]; time point 40)?
Answer: 0

Question: And the EC50 ([7]; time point 0, read-out: hepg2_flor_ec50_0)?
Answer: > 38.3 µM

Question: And the EC50 ([7]; time point 8, read-out: hepg2_flor_ec50_8)?
Answer: > 38.3 µM

Question: What about the EC50 ([7]; time point 16, read-out: hepg2_flor_ec50_16) of the same compound?
Answer: > 38.3 µM

Question: And the EC50 ([7]; time point 24, read-out: hepg2_flor_ec50_24)?
Answer: > 38.3 µM

Question: What about the EC50 ([7]; time point 32, read-out: hepg2_flor_ec50_32) of the same compound?
Answer: > 38.3 µM

Question: What about the EC50 ([7]; time point 40, read-out: hepg2_flor_ec50_40) of the same compound?
Answer: > 38.3 µM

Question: What about the hepg2_glo_auc [8] of the same compound?
Answer: 0

Question: What about the hepg2_glo_time [8] of the same compound?
Answer: 48

Question: And the hepg2_glo_bin ([8]; kinetics bin)?
Answer: inactive

Question: And the hepg2_glo_emax_0 ([8]; time point 0)?
Answer: 0

Question: What about the hepg2_glo_pod_0 ([8]; time point 0) of the same compound?
Answer: -4.417

Question: What about the hepg2_glo_wauc_0 ([8]; time point 0) of the same compound?
Answer: 0

Question: What about the hepg2_glo_emax_8 ([8]; time point 8) of the same compound?
Answer: 0

Question: And the hepg2_glo_pod_8 ([8]; time point 8)?
Answer: -4.417

Question: And the hepg2_glo_wauc_8 ([8]; time point 8)?
Answer: 0

Question: What about the hepg2_glo_emax_16 ([8]; time point 16) of the same compound?
Answer: 0

Question: And the hepg2_glo_pod_16 ([8]; time point 16)?
Answer: -4.417

Question: And the hepg2_glo_wauc_16 ([8]; time point 16)?
Answer: 0

Question: What about the hepg2_glo_emax_24 ([8]; time point 24) of the same compound?
Answer: 0

Question: And the hepg2_glo_pod_24 ([8]; time point 24)?
Answer: -4.417

Question: And the hepg2_glo_wauc_24 ([8]; time point 24)?
Answer: 0

Question: What about the hepg2_glo_emax_32 ([8]; time point 32) of the same compound?
Answer: 0

Question: What about the hepg2_glo_pod_32 ([8]; time point 32) of the same compound?
Answer: -4.417

Question: What about the hepg2_glo_wauc_32 ([8]; time point 32) of the same compound?
Answer: 0

Question: What about the hepg2_glo_emax_40 ([8]; time point 40) of the same compound?
Answer: 0

Question: And the hepg2_glo_pod_40 ([8]; time point 40)?
Answer: -4.417

Question: What about the hepg2_glo_wauc_40 ([8]; time point 40) of the same compound?
Answer: 0

Question: What about the EC50 ([9]; HEK293, read-out: hek293_flor_ec50_0) of the same compound?
Answer: > 38.3 µM

Question: What about the EC50 ([9]; HEK293, read-out: hek293_flor_ec50_8) of the same compound?
Answer: > 38.3 µM

Question: What about the EC50 ([9]; HEK293, read-out: hek293_flor_ec50_16) of the same compound?
Answer: > 38.3 µM

Question: What about the EC50 ([9]; HEK293, read-out: hek293_flor_ec50_24) of the same compound?
Answer: > 38.3 µM

Question: What about the EC50 ([9]; HEK293, read-out: hek293_flor_ec50_32) of the same compound?
Answer: > 38.3 µM

Question: What about the EC50 ([9]; HEK293, read-out: hek293_flor_ec50_40) of the same compound?
Answer: > 38.3 µM

Question: With `CC/C(=C(\c1ccccc1)c1ccc(OCCN(C)C)cc1)c1ccccc1` [Tamoxifen] as the compound, how does the “AUC score in Judson 2015” value [1] read?
Answer: 0.447

Question: And the “Cyto(realtime)_median” value [2, 11]?
Answer: 4.64 log10(M)*-1

Question: For tetrabutyltin, which “AUC score in Judson 2015” value [1] is on record?
Answer: 0.0101

Question: And the “ER antagonist AUC score” value [1]?
Answer: higher than 0.01

Question: What about the “Cyto(realtime)_max” value [2] of the same compound?
Answer: 5.64 log10(M)*-1

Question: And the “Cyto(realtime)_median” value [2]?
Answer: 5.16 log10(M)*-1

Question: Which results are given for `CCCCCCCCCCCCOC(=O)c1cc(O)c(O)c(O)c1` [dodecyl gallate]?
Answer: AUC score in Judson 2015 [1]: 0.0773; ER antagonist AUC score [1]: higher than 0.01

Question: Which results are given for `CCCCCCCCOC(=O)c1cc(O)c(O)c(O)c1` [octyl gallate]?
Answer: AUC score in Judson 2015 [1]: 0.0768; ER antagonist AUC score [1]: higher than 0.01
